The target of one experiment is JARID1D (KDM5D) (Homo sapiens, UniProt Q9BY66). Briefly: AlphaScreen histone demethylase assay. Type of experiment: biochemical. (In general: In Alpha technology, singlet oxygen from a donor bead excites a nearby acceptor bead.)
Experiment [1] relates to hypoxia response element (HRE) firefly luciferase reporter in HT1080 cells. As to the kind of experiment: HRE luciferase reporter assay. It is filed as cell-based. The following applies: for EC50: Homo sapiens. Here is the method: HT1080 cells were stably transfected with a construct containing a firefly luciferase gene under the control of 5 tandem copies of the sequence: […] (which contains the hypoxia response element (HRE) 3′ to the mouse erythropoietin gene) linked to a ‘minimal’ SV40 promoter.
HT1080P8 cells (25 000–30 000) were seeded into 96-well plates (100 μL per well) overnight to enable cell adhesion. […] The medium was removed and cells washed with PBS. Luciferase signal was measured using Luciferase Assay System kit from Promega (E1500) following the manufacturer's protocol with a FLUOstar Omega Microplate Reader (BMG Labtech).
A general note: Reporter assays use an easily measured gene product as a stand-in for the process of interest.

Experiment [2] concerns HIF-1α and HIF-2α in Hep3b cells. As to the kind of experiment: Immunoblotting of HIF-α stabilization in Hep3b cells. Type of experiment: cell-based, human. Here is the method: We then investigated potential time dependent effects of the inhibitors on HIF-α stabilization in Hep3b cells (Fig. 5A). […]
(§1) Cell Culture and Immunoblotting
(§2) HeLa and RCC4 cells were cultured in Dulbecco’s Modified Eagle’s Medium (DMEM; Sigma Aldrich D6546-500ML) supplemented with 10% fetal bovine serum (Sigma Aldrich F7524-500ML), 4 mM L-glutamine (Sigma Aldrich G7513- 100ML), 50 U/mL penicillin, and 50 μg/mL streptomycin (Sigma Aldrich P0781-100ML). Cells were seeded to reach 90-100% confluency prior to compound treatment. Cells were exposed to the inhibitor at a final concentration of 1% DMSO for 5-6 hours. For Fe(II) titration in the presence of inhibitors, […]
(§3) Cells were harvested in urea/SDS buffer (6.7 M urea, 10 mM Tris-Cl pH 6.8, 10% glycerol, and1% SDS) supplemented with 1mM dithiothreitol following a phosphate-buffered saline (PBS) rinse. Cell extracts were analyzed with SDS-PAGE, electroblotted to polyvinylidene difluoride (PVDF) membrane (Millipore) and probed with the corresponding primary antibody for 1 hour at room temperature or overnight at 4 °C. The secondary antibody specific to primary antibody species conjugated with HRP were applied at room temperature for 1 hour.
Millipore), anti-HIF-1α Hyp564 (D43B5, Cell Signaling), anti-HIF-1α HyN803 (a generous […]
Abcam). Details of antibodies used are given in Tian et al.17 Detection of signal was achieved […]
unless otherwise stated) either with film or ChemiDoc MP (BIO-RAD) imaging system. TM Quantification of the immunobloting signal was performed with Image Lab software from […]
(A western blot detects proteins with antibodies after separation by electrophoresis.)

Experiment [3] relates to HIF-1α Pro402 (NODD), Pro564 (CODD) and Asn803 hydroxylation in RCC4 cells. As to the kind of experiment: Immunoblotting of HIF-1α hydroxylation in VHL-deficient RCC4 cells. It is filed as cell-based, human. The following applies: 6 hours; for comparison of inhibition of NODD and CODD hydroxylation: RCC4 cells, 10, 50 and 100 μM; for inhibition of HIF-1α NODD and CODD hydroxylation: titration. Here is the method: To test whether the cellular HIF-α induction occurs via inhibition of HIF-α hydroxylation, we utilized a Von Hippel–Lindau (VHL)-deficient renal cell carcinoma cell line RCC4, in which HIF-α is constitutively stabilized in normoxia due to loss of functional VHL.[77] We used antibodies specific for hydroxylation at the N-terminal and C-terminal oxygen-dependent degradation domains, Pro402 (NODD) and Pro564 (CODD) at HIF-1α.[78] HIF-1α hydroxylation status was analyzed after 6 hours treatment. […]. page 15: […]
as §1
as §2, with “inhibitors, ferric ammonium citrate was added to the cells for further 16 hours after 6 hours of incubation” for “inhibitors,”
as §3
The antibodies used for immonoblotting were as follows: pan-anti-HIF-1α (clone 54, BD Transduction Laboratories™), anti-HIF-1α Hyp402 (catalogue number 07-1585, Merck Millipore), anti-HIF-1α Hyp564 (D43B5, Cell Signaling), anti-HIF-1α HyN803 (a generous gift from Lee et al.15), PHD216, PHD316, and HRP-conjugated anti-β-actin (clone AC15, Abcam). Details of antibodies used are given in Tian et al.17 Detection of signal was achieved using SuperSignal™ West Dura Extended Duration Substrate kTM it (Thermo Scientific 34075, unless otherwise stated) either with film or ChemiDoc MP (BIO-RAD) imaging system. TM Quantification of the immunobloting signal was performed with Image Lab software from […]

Experiment [4] has as its target PHD2 catalytic domain (residues 181-426) (Homo sapiens, UniProt Q9GZT9). Briefly: NMR competition assays (2OG, CODD, NODD displacement). The arrangement: The catalytic domain of human PHD2 (residues 181-426) was used in all; made in house. The conditions noted are these: for 2OG displacement: inhibitor at 400 μM, PHD2 at 10 μM, 1H CPMG. Type of experiment: binding. The protocol: 2OG displacement experiments were monitored by CPMG-edited 1H NMR using a Bruker […]
supplemented with 60 µM Zn(II) and increasing concentrations of the inhibitors from a […]
(90°x−[τ−180°y−τ−90°y−τ−180°y−τ]n−acq), was applied. Typical experimental parameters were […]
suppression was achieved by presaturation.
For 13C-CODD and […] displacement experiments, 1D Clean In-Phase (CLIP) HSQC with selective 13C-inversion displacement experiments were conducted using a Bruker AV700 instrument. 3 mm MATCH NMR tubes were used (Cortecnet). All experiments were […]
prolyl-ring. 7 The CLIP-HSQC sequence was used for 1D HSQC experiments (without 13C decoupling).8 Relaxation delay was 2s. The 1JCH was set to 160 Hz. A 6.8 ms Q3.1000 180 degree pulse was used and selective irradiation was applied at the selected chemical shift. […]

The mark [5] stands for this setting: HT-1080, 16 h, read-out: EC50 HRE luciferase reporter.
[6] abbreviates: 1D-selective HSQC with selective 13C inversion.

Like-named read-outs stand apart in the source and are kept apart here.

The source of these data is publication PMC5802278, “Molecular and cellular mechanisms of HIF prolyl hydroxylase inhibitors in clinical trials” (Chemical Science, 2017).

Sequence of PHD2 catalytic domain (residues 181-426) (Q9GZT9 181-426): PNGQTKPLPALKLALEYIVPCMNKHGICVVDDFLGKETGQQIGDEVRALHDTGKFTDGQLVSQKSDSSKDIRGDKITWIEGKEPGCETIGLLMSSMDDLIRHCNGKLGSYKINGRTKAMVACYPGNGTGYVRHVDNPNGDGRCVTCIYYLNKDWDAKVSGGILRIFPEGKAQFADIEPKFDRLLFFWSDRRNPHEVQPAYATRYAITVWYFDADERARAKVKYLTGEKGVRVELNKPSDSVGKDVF
Sequence of JARID1D (KDM5D) (Q9BY66 whole entry): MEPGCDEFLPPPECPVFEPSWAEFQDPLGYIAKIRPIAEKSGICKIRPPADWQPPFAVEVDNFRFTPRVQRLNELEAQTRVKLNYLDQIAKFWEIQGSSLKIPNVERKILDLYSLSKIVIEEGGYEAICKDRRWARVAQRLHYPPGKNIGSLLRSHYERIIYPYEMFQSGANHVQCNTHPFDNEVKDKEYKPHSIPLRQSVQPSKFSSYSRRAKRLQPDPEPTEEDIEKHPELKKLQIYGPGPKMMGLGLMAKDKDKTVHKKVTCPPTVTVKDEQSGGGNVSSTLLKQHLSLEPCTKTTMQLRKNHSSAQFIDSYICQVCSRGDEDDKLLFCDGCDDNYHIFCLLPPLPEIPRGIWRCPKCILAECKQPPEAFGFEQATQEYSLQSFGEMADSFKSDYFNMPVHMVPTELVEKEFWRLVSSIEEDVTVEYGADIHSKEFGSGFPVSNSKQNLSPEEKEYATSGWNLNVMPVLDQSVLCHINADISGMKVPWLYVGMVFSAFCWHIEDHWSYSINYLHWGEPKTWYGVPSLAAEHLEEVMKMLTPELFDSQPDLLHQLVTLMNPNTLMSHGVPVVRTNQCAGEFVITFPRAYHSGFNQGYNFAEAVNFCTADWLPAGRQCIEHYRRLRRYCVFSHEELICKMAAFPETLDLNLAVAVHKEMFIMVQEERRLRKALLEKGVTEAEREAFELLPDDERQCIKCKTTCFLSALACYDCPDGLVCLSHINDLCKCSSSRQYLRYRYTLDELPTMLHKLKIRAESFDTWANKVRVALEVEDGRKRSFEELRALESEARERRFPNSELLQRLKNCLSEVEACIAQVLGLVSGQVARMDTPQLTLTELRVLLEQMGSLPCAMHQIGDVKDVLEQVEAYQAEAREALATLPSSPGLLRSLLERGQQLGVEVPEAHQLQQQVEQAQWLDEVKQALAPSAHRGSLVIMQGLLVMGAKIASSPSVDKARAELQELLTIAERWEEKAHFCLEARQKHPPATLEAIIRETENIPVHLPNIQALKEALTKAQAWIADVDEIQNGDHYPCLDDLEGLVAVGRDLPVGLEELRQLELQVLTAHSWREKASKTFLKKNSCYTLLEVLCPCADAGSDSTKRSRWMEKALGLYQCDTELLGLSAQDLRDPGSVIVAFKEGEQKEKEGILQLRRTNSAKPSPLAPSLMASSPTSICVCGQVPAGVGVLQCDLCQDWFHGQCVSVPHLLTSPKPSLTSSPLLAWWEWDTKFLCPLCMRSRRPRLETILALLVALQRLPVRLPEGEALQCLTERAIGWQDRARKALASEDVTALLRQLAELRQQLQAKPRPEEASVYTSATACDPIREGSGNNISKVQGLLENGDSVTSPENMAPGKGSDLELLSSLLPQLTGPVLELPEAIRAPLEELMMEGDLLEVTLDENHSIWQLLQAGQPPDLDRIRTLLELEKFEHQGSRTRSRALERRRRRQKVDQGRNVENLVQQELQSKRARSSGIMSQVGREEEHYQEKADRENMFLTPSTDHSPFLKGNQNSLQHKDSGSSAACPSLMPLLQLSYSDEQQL

`O=C(O)CNC(=O)C1C(=O)N(C2CCCCC2)C(=O)N(C2CCCCC2)C1=O` [GSK1278863]: on JARID1D (KDM5D), the IC50 is above 100 µM. Besides, in experiment [1] (HT1080 cells, 16 hours), the “Emax in HRE luciferase reporter assay” value is listed as “lowest observed Emax” and the “concentrations at which the luciferase signals were reduced” value was above 33 µM. In experiment [1] (setting [5]), the concentration giving a half-maximal response (EC50) worked out at 0.8 µM. In experiment [2] (10 μM), the “time at which HIF-1α level saturated” value came out at 3 h and the “time at which HIF-2α level saturated” value was 3 h. In addition, the “comparison of inhibition of NODD and CODD hydroxylation” value in experiment [3] is listed as “better inhibits NODD than CODD hydroxylation”. For the same compound, the “inhibition of HIF-1α NODD and CODD hydroxylation” value in experiment [3] (RCC4 cells) was “inhibited both NODD and CODD hydroxylation in a dose dependent manner”. In addition, the “inhibition of HIF-1α Asn803 hydroxylation” value in experiment [3] (RCC4 cells, up to 100 μM) is reported as “no sign of HIF-1α Asn803 hydroxylation inhibition”.
With `O=c1c(-n2ccnn2)c[nH]n1-c1cc(N2CCOCC2)ncn1` [Molidustat], the IC50 on JARID1D (KDM5D) (read-out: IC50 JARID1D (KDM5D)) was above 100 µM. The “concentrations at which the luciferase signals were reduced” value in experiment [1] (HT1080 cells, 16 hours) is above 33 µM. In addition, in experiment [1] (HT-1080, HT1080 cells, 16 hours treatment, read-out: EC50 HRE luciferase reporter), the EC50 is 2.1 µM. In addition, the “time at which HIF-2α level saturated” value in experiment [2] (2.5 μM) came out at 1 h. In addition, in experiment [2] (10 μM), the “time at which HIF-1α level saturated” value is given as “after the first hour” and the “time at which HIF-2α level saturated” value is “after the first hour”. Also, the “comparison of inhibition of NODD and CODD hydroxylation” value in experiment [3] is “weaker inhibition of both hydroxylation sites compared to FG-4592 and GSK1278863 at 10 μM”. Further, the “inhibition of HIF-1α NODD and CODD hydroxylation” value in experiment [3] (RCC4 cells) is “inhibited both NODD and CODD hydroxylation in a dose dependent manner”. In experiment [3] (RCC4 cells, up to 100 μM), the “inhibition of HIF-1α Asn803 hydroxylation” value was “no sign of HIF-1α Asn803 hydroxylation inhibition”. In addition, the 13C-NODD displacement result in experiment [4] (setting [6]) is recorded as “barely detectable”. For the same compound, in experiment [4], the 2OG displacement result is “completely displaced 2OG”.
In the case of `O=C(O)CNC(=O)c1ncc(-c2cccc(Cl)c2)cc1O` [Vadadustat], the 50% inhibitory concentration (IC50) on JARID1D (KDM5D) (read-out: IC50 JARID1D (KDM5D)) is above 100 µM. Further, the EC50 in experiment [1] (HT-1080, 6 h, read-out: EC50 HRE luciferase reporter) worked out at 15.7 µM; in experiment [1] (setting [5]), 41 µM; in experiment [1] (HT-1080, 24 h, read-out: EC50 HRE luciferase reporter) it was 37 µM. The “concentration from which dose-dependent HIF-1α stabilization was clear” value in experiment [2] (up to 6 hours) is at least 50 µM. The “inhibition of NODD hydroxylation” value in experiment [3] (RCC4 cells, 50 μM) is “no sign of PHD inhibition”; in experiment [3] (RCC4 cells, 100 μM), “only slight inhibition”. Also, the “inhibition of CODD hydroxylation” value in experiment [3] (RCC4 cells, up to 100 μM) is recorded as “no clear inhibition”. Moreover, the “inhibition of hydroxylation of Asn803” value in experiment [3] (RCC4 cells, up to 200 μM) is reported as “not observed”. Further, the 13C-NODD displacement result in experiment [4] (setting [6]) was “clearly displaced NODD”. For the same compound, the 2OG displacement entry in experiment [4] is “completely displaced 2OG”.
Regarding `CC(C)(C)OC(=O)c1ccc(-n2[nH]cc(-n3ccnn3)c2=O)nc1` [IOX4], at JARID1D (KDM5D) (read-out: IC50 JARID1D (KDM5D)), the IC50 is 91 µM. Besides, in experiment [1] (HT1080 cells, 16 hours), the “concentrations at which the luciferase signals were reduced” value was above 33 µM. Also, the EC50 in experiment [1] (setting [5]) worked out at 0.8 µM. In addition, in experiment [2] (2.5 μM), the “time at which HIF-2α level saturated” value came out at 1 h. Further, in experiment [2] (10 μM), the “time at which HIF-1α level saturated” value fell in the range of 3 to 6 h and the “time at which HIF-2α level saturated” value lay within 3 to 10 h. Further, the “inhibition of HIF-1α NODD and CODD hydroxylation” value in experiment [3] (RCC4 cells) was “inhibited both NODD and CODD hydroxylation in a dose dependent manner”. For the same compound, the 13C-NODD displacement result in experiment [4] (setting [6]) was “clearly displaced NODD”. Further, the 2OG displacement result in experiment [4] is reported as “completely displaced 2OG”.
`Cc1nc(C(=O)NCC(=O)O)c(O)c2ccc(Oc3ccccc3)cc12` [FG-4592]: the IC50 at JARID1D (KDM5D) (read-out: IC50 JARID1D (KDM5D)) is above 100 µM. Also, the EC50 in experiment [1] (HT-1080, 6 h, read-out: EC50 HRE luciferase reporter, HT1080 cells, 6 hours treatment) came to 3 µM. For the same compound, the EC50 in experiment [1] (HT-1080, 16 h, read-out: EC50 HRE luciferase reporter, HT1080 cells, 16 hours treatment) is 7 µM. Also, the EC50 in experiment [1] (HT-1080, 24 h, read-out: EC50 HRE luciferase reporter, HT1080 cells, 24 hours treatment) came to 7 µM. Moreover, the “comparison of inhibition of NODD and CODD hydroxylation” value in experiment [3] is “greatest inhibition of CODD hydroxylation among the inhibitors”. Besides, in experiment [3] (RCC4 cells, 50 μM), the “inhibition of CODD hydroxylation” value was “clear inhibition” and the “inhibition of NODD hydroxylation” value is listed as “significantly inhibited”. In experiment [3] (RCC4 cells), the “inhibition of HIF-1α NODD and CODD hydroxylation” value is “inhibited both NODD and CODD hydroxylation in a dose dependent manner”. In experiment [3] (RCC4 cells, up to 100 μM), the “inhibition of HIF-1α Asn803 hydroxylation” value was “no sign of HIF-1α Asn803 hydroxylation inhibition”. For the same compound, in experiment [4] (setting [6]), the 13C-CODD displacement entry is on record as “efficiently displaced CODD” and the 13C-NODD displacement entry was “clearly displaced NODD”. The 2OG displacement entry in experiment [4] is reported as “completely displaced 2OG”.

In general, IC50 refers to the concentration that inhibits the measured activity by half. The EC50 is the concentration needed to bring the measured effect to its halfway point.
